The values that follow come from patent publication US11123292B2, “Use of biocompatible microdroplets for the treatment of atherosclerosis, heart disease and stroke” (priority 2014, dated 2021).

The conditions of data set [1]: single compound; cited from earlier work.
Data set [2] is described as follows: Relative Energy Difference (RED) with cholesterol, calculated from HSP. Particulars: RED=Ra/Ro, Ro of cholesterol 12.6. As for the experimental part: The extent to which two compounds will dissolve each other can be quantified using the equations developed by Hansen: (Ra)^2=4(δd2−δd1)^2+(δp2−δp1)^2+(δh2−δh1)^2 Eq. (1) RED=Ra/Ro Eq. (2)
Equation 1 calculates the relative magnitude difference of the three Hansen parameters of the two compounds to arrive at Ra. […] Equation 2 allows one to calculate the Relative Energy Difference (RED) of the solvent and the material we are trying to dissolve, by dividing Ra by Ro. Ra was calculated in Equation 1 and measures the magnitude of the difference of the HSP values of the two compounds. The units for the HSP parameters δd, δp, δh are MPa^1/2. […] The Relative Energy Difference (RED) is a dimensionless number which quantifies how well a solvent will dissolve a solute. For an RED>>1 the compounds will not dissolve. For an RED˜1, there will be some dissolution. For an RED<1 there will be a considerable amount of dissolution. Essentially, the smaller RED value, the more solute will dissolve into the solvent, with RED=1 being a threshold where a given solute is starting to be soluble in a given solvent.
Referring now to FIG. 6, this diagram provides a flow chart showing how the biocompatible microdroplet solvent emulsion can be formulated. […] For an example of compounds which might be included in 400, please refer to Tables 1, 2, 3 and 4. However, this list of tables is by no means exhaustive and other compounds could be added to this list. The number of compounds selected can comprise of 1, 2, 3 or as many as are deemed necessary, which is symbolized by the variable n. The HSP parameters of a homogenous mixture of compounds are the weighted average of the HSP parameters of the individual components. […] Ideally, it is possible to formulate a solution such that the resultant RED of the mixture is smaller than the RED of any of the individual components.
The δdm, δpm, δhm calculated using Eq. 9 are the Hansen solubility parameters of the homogenous mixture, where m denotes mixture, and fi depicts the fraction of each of the n components used to fabricate the biocompatible solvent. Equation 10 can be used to calculate the RED of the final mixture, where Ro is the interaction radius of the cholesterol, or other component of arterial plaque one desires to dissolve using the biocompatible microdroplets and […] represents the Hansen solubility constants of cholesterol (dispersion, polar and hydrogen bonding components) or the HSP parameter of the arterial plaque which is being targeted.

A short description of data set [3]: Dissolving cholesterol by microdroplets in whole blood. The source says: To effectively dissolve arterial plaque in-vivo it is very important that the biocompatible solvent be sufficiently insoluble in blood to allow a small discrete microdroplet to travel through the blood stream, from the injection point, to the plaque which is being treated. If the biocompatible solvent dissolves within the blood, such as an alcohol, the solubility parameters of the resultant mixture will be very nearly identical to that of blood and will not dissolve cholesterol or arterial plaque. Conversely, if a discrete microdroplet of the biocompatible solvent makes contact with the plaque, then the cholesterol molecule in the plaque will be surrounded by multiple molecules of the biocompatible solvent, which have similar solubility parameters as the cholesterol, and the cholesterol will be drawn away from the plaque and into the droplet. […] An organic salt, Esters, an organo-metallic compound could also be used as the main component or an addition to the biocompatible microdroplet solvent means. Essentially any organic molecule which can be administered intravenously with acceptable side effects, is sufficiently insoluble in blood to travel as a discrete microdroplet without being dissolved prior to reaching arterial plaque and which is capable of dissolving cholesterol, cholesterol esters or other materials within the arterial plaque, could potentially be used.
1,8-cineole is classified as a cyclic ether and a monoterpenoid. […] This chemical gives certain fruits such as apples and strawberries their fruity taste, and is used as an additive in bubble gums for this purpose. […] It is used as a fragrance or flavouring agent. […] It is produced natuarally by the organism, and is found in abundance in shark liver oil.

“Also recorded” adds a separate entry of the source.

As to `C=C(C)[C@H]1CC=C(C)CC1` (racemic) [Dipentene], in data set [1], the “δd London dispersion HSP parameter” value is 16.7 MPa^1/2, the “δh hydrogen bonding HSP parameter” value is 4 MPa^1/2 and the “δp polarity HSP parameter” value was 2.2 MPa^1/2.

In the case of `CC(C)C12CCC(C)(CC1)O2` [1,4-Cineole], the “Relative Energy Difference (RED) with cholesterol” value (“Relative Energy Difference (RED)” below) in data set [2] was 0.70. Moreover, in data set [1], the “δd London dispersion HSP parameter” value was 17.1 MPa^1/2, the “δh hydrogen bonding HSP parameter” value is 3.7 MPa^1/2 and the “δp polarity HSP parameter” value is 3.6 MPa^1/2.

For the compound `CC12CCC(CC1)C(C)(C)O2` [1,8-cineole], the “efficacy at dissolving cholesterol, two experiments compared” value in data set [3] (up to a 4× difference in blood volume) is “identical to within measurement error”. Moreover, the “efficacy of microdroplets at dissolving cholesterol in whole blood” value (from here on “efficacy of microdroplets”) in data set [3] is given as “extremely good efficacy”. Moreover, the “efficacy of microdroplets” value in data set [3] (listed as 1,8 cineole) was “excellent results; also recorded: excellent efficacy”. For the same compound, in data set [2], the “Relative Energy Difference (RED)” value is 0.77. Moreover, in data set [1], the “δd London dispersion HSP parameter” value is on record as 16.7 MPa^1/2, the “δh hydrogen bonding HSP parameter” value is 3.4 MPa^1/2 and the “δp polarity HSP parameter” value is 4.6 MPa^1/2.

Consider `C=CC(C)(C)C(=O)C=C(C)C` [Artemisia Ketone], for which the “Relative Energy Difference (RED)” value in data set [2] is 0.83. Besides, in data set [1], the “δd London dispersion HSP parameter” value is 15.9 MPa^1/2, the “δh hydrogen bonding HSP parameter” value is 5.1 MPa^1/2 and the “δp polarity HSP parameter” value is 5.8 MPa^1/2.

Take `C=C(C)C1CC=C(C)C(=O)C1` (stereo not shown) [Carvone]: the “efficacy of microdroplets” value in data set [3] is on record as “excellent results”. In addition, the “Relative Energy Difference (RED)” value in data set [2] is listed as 0.5. Also, in data set [1], the “δd London dispersion HSP parameter” value is on record as 18 MPa^1/2, the “δh hydrogen bonding HSP parameter” value was 6.4 MPa^1/2 and the “δp polarity HSP parameter” value is recorded as 5.6 MPa^1/2.

Take `CC(C)=CCCC(C)=CC=O` [Citral]: the “Relative Energy Difference (RED)” value in data set [2] was 0.7. Also, in data set [1], the “δd London dispersion HSP parameter” value is 16.3 MPa^1/2, the “δh hydrogen bonding HSP parameter” value is listed as 6.2 MPa^1/2 and the “δp polarity HSP parameter” value is on record as 2.3 MPa^1/2.

`CC(C)=CCCC(C)CC=O` (stereo not shown) [Citronellal]: in data set [2], the “Relative Energy Difference (RED)” value is listed as 0.78. For the same compound, in data set [1], the “δd London dispersion HSP parameter” value is reported as 16.2 MPa^1/2, the “δh hydrogen bonding HSP parameter” value is 5.2 MPa^1/2 and the “δp polarity HSP parameter” value is reported as 5.9 MPa^1/2.

As to `CC(C)=CCCC(C)CCO` (stereo not shown) [Citronellol], the “Relative Energy Difference (RED)” value in data set [2] is 0.72. For the same compound, in data set [1], the “δd London dispersion HSP parameter” value is 16 MPa^1/2, the “δh hydrogen bonding HSP parameter” value is 10.7 MPa^1/2 and the “δp polarity HSP parameter” value is 4.7 MPa^1/2.

For `CC(C)=CCCC(C)=CCCC(C)=CCO` [Farnesol], the “Relative Energy Difference (RED)” value in data set [2] is reported as 0.65. In data set [1], the “δd London dispersion HSP parameter” value is reported as 16.4 MPa^1/2, the “δh hydrogen bonding HSP parameter” value is 7.7 MPa^1/2 and the “δp polarity HSP parameter” value is given as 3.8 MPa^1/2.

Consider `C=CC(C)(CCC=C(C)C)OC(C)=O` (stereo not shown) [Linalyl Acetate], for which the “Relative Energy Difference (RED)” value in data set [2] is given as 0.76. Besides, in data set [1], the “δd London dispersion HSP parameter” value is given as 16 MPa^1/2, the “δh hydrogen bonding HSP parameter” value is 5.5 MPa^1/2 and the “δp polarity HSP parameter” value is 2.8 MPa^1/2.

In the case of `CC1CCC(C(C)C)C(O)C1` (stereo not shown) [Menthol], the “Relative Energy Difference (RED)” value in data set [2] was 0.63. Also, in data set [1], the “δd London dispersion HSP parameter” value was 16.6 MPa^1/2, the “δh hydrogen bonding HSP parameter” value is 10.6 MPa^1/2 and the “δp polarity HSP parameter” value is recorded as 4.7 MPa^1/2.

Regarding `CC(C)[C@@H]1CC[C@@H](C)CC1=O` [Menthone], the “Relative Energy Difference (RED)” value in data set [2] is on record as 0.79. Also, in data set [1], the “δd London dispersion HSP parameter” value was 17 MPa^1/2, the “δh hydrogen bonding HSP parameter” value is recorded as 4.4 MPa^1/2 and the “δp polarity HSP parameter” value is recorded as 8.1 MPa^1/2.

On to `C=CC(=C)CCC=C(C)C` [Myrcene], for which the “Relative Energy Difference (RED)” value in data set [2] is reported as 0.78. For the same compound, in data set [1], the “δd London dispersion HSP parameter” value is reported as 16 MPa^1/2, the “δh hydrogen bonding HSP parameter” value is given as 5.1 MPa^1/2 and the “δp polarity HSP parameter” value is listed as 2.2 MPa^1/2.

Take `C=CC(C)(O)CCC=C(C)CCC=C(C)C` (stereo not shown) [Nerolidol]: in data set [2], the “Relative Energy Difference (RED)” value was 0.64. For the same compound, in data set [1], the “δd London dispersion HSP parameter” value is 16.4 MPa^1/2, the “δh hydrogen bonding HSP parameter” value is recorded as 8.7 MPa^1/2 and the “δp polarity HSP parameter” value is listed as 2.7 MPa^1/2.

Turning to `C=CC(C)=CCC=C(C)C` [Ocimene], the “Relative Energy Difference (RED)” value in data set [2] is 0.62. In data set [1], the “δd London dispersion HSP parameter” value was 16.5 MPa^1/2, the “δh hydrogen bonding HSP parameter” value is 9.1 MPa^1/2 and the “δp polarity HSP parameter” value is reported as 2 MPa^1/2.

`C=C(C)C1CC=C(C=O)CC1` (stereo not shown) [Perillaldehyde]: the “Relative Energy Difference (RED)” value in data set [2] is 0.68. For the same compound, in data set [1], the “δd London dispersion HSP parameter” value is 17.1 MPa^1/2, the “δh hydrogen bonding HSP parameter” value is listed as 5.9 MPa^1/2 and the “δp polarity HSP parameter” value was 6.9 MPa^1/2.

As to `CC1=CC(=O)C(C(C)C)CC1` (stereo not shown) [Piperitone], the “Relative Energy Difference (RED)” value in data set [2] is listed as 0.72. Further, in data set [1], the “δd London dispersion HSP parameter” value is given as 17 MPa^1/2, the “δh hydrogen bonding HSP parameter” value was 4.5 MPa^1/2 and the “δp polarity HSP parameter” value is 6.2 MPa^1/2.

`CC(C)=C1CC[C@@H](C)CC1=O` [Pulegone]: the “Relative Energy Difference (RED)” value in data set [2] is listed as 0.74. Moreover, in data set [1], the “δd London dispersion HSP parameter” value was 17.5 MPa^1/2, the “δh hydrogen bonding HSP parameter” value was 5.5 MPa^1/2 and the “δp polarity HSP parameter” value is given as 8.9 MPa^1/2.

Regarding `CC(C)=CCC/C(C)=C/CC/C(C)=C/CC/C=C(\C)CC/C=C(\C)CCC=C(C)C` [Squalene], the “Relative Energy Difference (RED)” value in data set [2] was 0.52. In data set [1], the “δd London dispersion HSP parameter” value is 17.6 MPa^1/2, the “δh hydrogen bonding HSP parameter” value is 6 MPa^1/2 and the “δp polarity HSP parameter” value is reported as 3 MPa^1/2.

As to `C=C(C)[C@@H]1CCC=C(C)C1` [Sylvestrene], the “Relative Energy Difference (RED)” value in data set [2] is recorded as 0.74. In data set [1], the “δd London dispersion HSP parameter” value is listed as 16.6 MPa^1/2, the “δh hydrogen bonding HSP parameter” value was 4.1 MPa^1/2 and the “δp polarity HSP parameter” value was 3 MPa^1/2.

Turning to `CC1=CCC(=C(C)C)CC1` [Terpinolene], the “Relative Energy Difference (RED)” value in data set [2] is on record as 0.70. In data set [1], the “δd London dispersion HSP parameter” value was 16.9 MPa^1/2, the “δh hydrogen bonding HSP parameter” value is on record as 4.1 MPa^1/2 and the “δp polarity HSP parameter” value is 1.8 MPa^1/2.

For the compound `CC(C)=CCC[C@H](C)[C@@H]1C=CC(C)=CC1` [Zingiberene], the “Relative Energy Difference (RED)” value in data set [2] is 0.74. For the same compound, in data set [1], the “δd London dispersion HSP parameter” value is listed as 16.6 MPa^1/2, the “δh hydrogen bonding HSP parameter” value was 4.1 MPa^1/2 and the “δp polarity HSP parameter” value was 1.4 MPa^1/2.

As for Bisabolene, the “Relative Energy Difference (RED)” value in data set [2] was 0.73. In data set [1], the “δd London dispersion HSP parameter” value is given as 16.7 MPa^1/2, the “δh hydrogen bonding HSP parameter” value is on record as 4 MPa^1/2 and the “δp polarity HSP parameter” value is reported as 2.2 MPa^1/2.

With Phellandrene, the “Relative Energy Difference (RED)” value in data set [2] is 0.76. For the same compound, in data set [1], the “δd London dispersion HSP parameter” value was 16.5 MPa^1/2, the “δh hydrogen bonding HSP parameter” value is given as 3.9 MPa^1/2 and the “δp polarity HSP parameter” value is 1.6 MPa^1/2.

On to terpinene, for which the “efficacy of microdroplets” value in data set [3] is “excellent results”.
